Columns and labels:
[1] = tested on: SARS-CoV-2 Omicron variant; assay type: in vivo, mice; conditions: 100 and 300 mg/kg daily oral gavage, 7, 14, 21 days (FIG. 15B)
[2] = tested on: SARS-CoV-2 Delta variant; assay type: in vivo, mice; conditions: 100 and 300 mg/kg daily oral gavage

Cn1c(C(=O)N2CC(F)(F)C2)cc2ccc(-c3nccc(Nc4ccc(-c5cn[nH]c5)cc4)n3)cc21 [Compound 2, (6-(4-((4-(1H-pyrazol-4-yl)phenyl)amino)pyrimidin-2-yl)-1-methyl-1H-indol-2-yl)(3,3-difluoroazetidin-1-yl)methanone]
viral load in the lung [1]: effect was observed
viral load in the lung [2]: effect was observed

Reference: US20260007673A1, “ROCK2 INHIBITORS FOR THE TREATMENT OF VIRAL INFECTIONS” (GRAVITON BIOSCIENCE BV, priority 2022, published 2026)
